# Patent publication US9586907B2, “Isothiocyanate compounds, pharmaceutical compositions, and uses thereof” (priority 2006, dated 2017)
# Read-outs that look alike come from different tables or passages of the source.
# Key:
# M. cansassi = test: MIC, M. cansassi; type: cell-based
# virus (92TH594) = test: Viral proliferation in PBMC, p24 viral antigen; type: cell-based; settings: PBMC
# [1] = test system: Cryptococcus neoformans CNH99; test: Anti-fungal MIC, Cryptococcus neoformans CNH99; settings: Cryptococcus neoformans, CNH99, read-out: Anti-Fungal Activity (MIC)
# M. intracellularie = test: MIC, M. intracellularie; type: cell-based
# Candida albicans 90030 = test: Anti-fungal MIC, Candida albicans 90030; settings: Candida albicans, 90030, read-out: Anti-Fungal Activity (MIC)
# Bacillus cereus = test: Activity of ITC compounds against Bacillus cereus; type: cell-based
# [2] = test system: Aspergillus fumigatus Rit 21; test: Anti-fungal MIC, Aspergillus fumigatus Rit 21; settings: Aspergillus fumigatus, RIT21, read-out: Anti-Fungal Activity (MIC)
# [3] = test system: Candida parapsilosis 22019; test: Anti-fungal MIC, Candida parapsilosis 22019; settings: 22019, read-out: Anti-Fungal Activity (MIC)
# Candida crusei 6258^mdr = test: microbe, parasite or virus in culture; settings: read-out: Anti-Fungal Activity (MIC)
# [4] = test system: Candida albicans 5108^mdr; test: Anti-fungal MIC, Candida albicans 5108^mdr; settings: Candida albicans, read-out: Anti-Fungal Activity (MIC)
# M. tuberculosis CDC1551 = test: MIC, M. tuberculosis CDC1551; type: cell-based; settings: Mycobacterium tuberculosis, read-out: MIC
# Description: (§1) Next, several of the bifunctional ITC compounds were tested for their ability to inhibit the growth of some clinical isolates of Mycobacteria, the results of which are summarized in Table 3 below.
# M. tuberculosis P = test: MIC, M. tuberculosis P; type: cell-based; settings: Mycobacterium tuberculosis, read-out: MIC
# Description: as §1
# [5] = test system: Aspergillus fumigatus Rit 1; test: Anti-fungal MIC, Aspergillus fumigatus Rit 1; settings: Aspergillus fumigatus, RIT1, read-out: Anti-Fungal Activity (MIC)
# M. scrofulaceum = test: MIC, M. scrofulaceum; type: cell-based; settings: Mycobacterium scrofulaceum
# M. tuberculosis H37Rv = test: MIC, M. tuberculosis H37Rv; type: cell-based; settings: Mycobacterium tuberculosis, read-out: MIC
# Description: as §1
# [6] = In vivo tolerance in mice; settings: highest dose, 50 mg/kg
# M. tuberculosis W = test: MIC, M. tuberculosis W; type: cell-based; settings: Mycobacterium tuberculosis, read-out: MIC
# Description: as §1
# Candida albicans 90028 = test: Anti-fungal MIC, Candida albicans 90028; settings: Candida albicans, 90028, read-out: Anti-Fungal Activity (MIC)
# M. fortuitum = test: MIC, M. fortuitum; type: cell-based; settings: Mycolicibacterium fortuitum
# M. avium = test: MIC, M. avium; type: cell-based; settings: Mycobacterium avium
# Candida dlabrata 250^mdr = test: Anti-fungal MIC, Candida dlabrata 250^mdr; settings: Candida, read-out: Anti-Fungal Activity (MIC)
# [7] = test system: Aspergillus fumigatus Rit 11; test: Anti-fungal MIC, Aspergillus fumigatus Rit 11; settings: Aspergillus fumigatus, RIT11, read-out: Anti-Fungal Activity (MIC)
# [8] = test system: Acinetobacter sp., BK12786; test: MIC, Acinetobacter sp., BK12786; settings: Acinetobacter, 24 h
# [9] = test system: Streptococcus sp., BK12233; test: MIC, Streptococcus sp., BK12233; settings: Streptococcus, 24 h
# Escherichia coli K12 = test: MIC, Escherichia coli K12; settings: Escherichia coli, K12, 24 h
# [10] = test system: Staphylococcus epidermidis BK12798; test: MIC, Staphylococcus epidermidis BK12798; settings: Staphylococcus epidermidis, BK12798, 24 h
# Escherichia coli BK12336 = test: MIC, Escherichia coli BK12336; settings: Escherichia coli, BK12336, 24 h
# Shigella sp., BK 12441 = test: MIC, Shigella sp., BK 12441; type: cell-based; settings: Gram −, 24 hours of incubation, read-out: MIC
# [11] = test system: MRSA (Staphylococcus aureus) BK12060; test: MIC, MRSA BK12060; settings: Staphylococcus aureus, MRSA, 24 h
# [12] = test system: Enterobacter cloacii BK12313; test: MIC, Enterobacter cloacii BK12313; settings: Enterobacter, BK12313, 24 h
# Bacillus cereus 4342 = test: MIC, Bacillus cereus 4342; settings: Bacillus cereus, 4342, 24 h
# [13] = test system: Acinetobacter sp., BK12787; test: MIC, Acinetobacter sp., BK12787; settings: Acinetobacter, 24 h
# [14] = test system: Serattia marcescens BK12421; test: MIC, Serattia marcescens BK12421; settings: 24 h
# [15] = test system: Klebsiella pneumonii BK12260; test: MIC, Klebsiella pneumonii BK12260; settings: Klebsiella, BK12260, 24 h
# [16] = test system: MRSA (Staphylococcus aureus) BK12064; test: MIC, MRSA BK12064; settings: Staphylococcus aureus, MRSA, 24 h
# [17] = test system: Serattia marcescens BK12426; test: MIC, Serattia marcescens BK12426; settings: 24 h
# [18] = test system: Enterococcus sp., BK11940; test: MIC, Enterococcus sp., BK11940; settings: Enterococcus, 24 h
# [19] = test system: Pseudomonas aeruginosa BK12347; test: MIC, Pseudomonas aeruginosa BK12347; settings: Pseudomonas aeruginosa, BK12347, 24 h
# [20] = test system: Enterococcus sp., BK11936; test: MIC, Enterococcus sp., BK11936; settings: Enterococcus, 24 h
# [21] = test system: Klebsiella pneumonii BK12261; test: MIC, Klebsiella pneumonii BK12261; settings: Klebsiella, BK12261, 24 h
# [22] = test system: Pseudomonas aeruginosa BK12348; test: MIC, Pseudomonas aeruginosa BK12348; settings: Pseudomonas aeruginosa, BK12348, 24 h
# [23] = test system: Streptococcus sp., BK12235; test: MIC, Streptococcus sp., BK12235; settings: Streptococcus, 24 h
# [24] = test system: Bacillus subtilis BK11590; test: MIC, Bacillus subtilis BK11590; type: cell-based; settings: Gram +, 24 hours of incubation, read-out: MIC
# [25] = test system: Staphylococcus epidermidis BK12799; test: MIC, Staphylococcus epidermidis BK12799; settings: Staphylococcus epidermidis, BK12799, 24 h
# [26] = test system: Enterobacter cloacii BK12315; test: MIC, Enterobacter cloacii BK12315; settings: Enterobacter, BK12315, 24 h
# Shigella sp., BK 12440 = test: MIC, Shigella sp., BK 12440; type: cell-based; settings: Gram −, 24 hours of incubation, read-out: MIC
# [27] = Compound stability, independent experiments; type: physicochemical
# [28] = test system: clinical isolates of bacteria and fungus (including yeasts); test: General antimicrobial activity, semi-quantitative score on collection of clinical isolates; type: cell-based; for General antimicrobial activity: key: −: indicating no activity; +++++: indicating highest activity
# Description: The growth inhibitory effect of a number of various ITC compounds were tested on large collection of clinical isolates of bacteria and fungus (including yeasts), in order to establish a systematic structure-activity relationship for the ITC compounds. […] To assess the average activity for an individual ITC compound, the semi-quantitative score was calculated for each compound based on the number of sensitive bacterial strains at concentrations of 100 and 200 μM.
# [29] = test system: methicillin-resistant Staphylococcus aureus (MRSA); test: Activity against MRSA (data not shown); type: cell-based
# [30] = test system: Staphylococcus epidermidis; test: Activity against Staphylococcus epidermidis (data not shown); type: cell-based
smiles,measurement,setting,value
S=C=NCc1cccnc1 [Compound 30],MIC,M. cansassi,32 µg/mL
same,P24 values,"virus (92TH594); compound 2.5 μg/ml, added to the cells after viral infection",643 pg/mL
same,P24 values,"virus (92TH594); compound 2.5 μg/ml, added to the cells before viral infection",320 pg/mL
same,P24 values,"virus (92TH594); compound 10 μg/ml, added to the cells after viral infection",155 pg/mL
same,P24 values,"virus (92TH594); compound 10 μg/ml, added to the cells before viral infection",0 pg/mL
same,MIC,[1],1 µg/mL
same,MIC,M. intracellularie,32 µg/mL
same,MIC,Candida albicans 90030,1 µg/mL
same,activity against Bacillus cereus (in words),Bacillus cereus,only moderately active
same,MIC,[2],4 µg/mL
same,MIC,[3],1 µg/mL
same,MIC,Candida crusei 6258^mdr,0.5 µg/mL
same,MIC,[4],0.5 µg/mL
same,MIC,M. tuberculosis CDC1551,16 µg/mL
same,MIC,M. tuberculosis P,4 µg/mL
same,MIC,[5],4 µg/mL
same,MIC,M. scrofulaceum,32 µg/mL
same,MIC,M. tuberculosis H37Rv,32 µg/mL
same,toxicity in treated mice,[6],no toxicity was observed
same,MIC,M. tuberculosis W,4 µg/mL
same,MIC,Candida albicans 90028,2 µg/mL
same,MIC,M. fortuitum,16 µg/mL
same,MIC,M. avium,32 µg/mL
same,MIC,Candida dlabrata 250^mdr; 48 h,2 µg/mL
same,MIC,[7],4 µg/mL
"COc1ccc(CN=C=S)cc1 [Compound 2, reference compound]",MIC,"M. cansassi; M. cansassi, read-out: MIC",32 µg/mL
same,MIC,[8],> 64 µg/mL
same,MIC,[1],< 1 µg/mL
same,MIC,"M. intracellularie; M. intracellularie, read-out: MIC",32 µg/mL
same,MIC,[9],4 µg/mL
same,MIC,Escherichia coli K12,64 µg/mL
same,MIC,[10],32 µg/mL
same,MIC,Candida albicans 90030,4 µg/mL
same,MIC,[2],8 µg/mL
same,MIC,[3],4 µg/mL
same,MIC,Escherichia coli BK12336,> 64 µg/mL
same,MIC,Candida crusei 6258^mdr,2 µg/mL
same,MIC,"Shigella sp., BK 12441",32 to 64 µg/mL
same,MIC,[11],32 to 64 µg/mL
same,MIC,[12],> 64 µg/mL
same,MIC,Bacillus cereus 4342,32 µg/mL
same,MIC,[13],> 64 µg/mL
same,MIC,[14],> 64 µg/mL
same,MIC,[4],2 µg/mL
same,MIC,[15],> 64 µg/mL
same,MIC,[16],64 µg/mL
same,MIC,[17],> 64 µg/mL
same,MIC,M. tuberculosis CDC1551,32 µg/mL
same,MIC,[18],64 µg/mL
same,MIC,M. tuberculosis P,8 µg/mL
same,MIC,[5],8 µg/mL
same,MIC,"M. scrofulaceum; M. scrofulaceum, read-out: MIC",32 µg/mL
same,MIC,[19],> 64 µg/mL
same,MIC,M. tuberculosis H37Rv,32 µg/mL
same,MIC,M. tuberculosis W,8 µg/mL
same,MIC,[20],64 µg/mL
same,MIC,[21],> 64 µg/mL
same,MIC,Candida albicans 90028,4 µg/mL
same,MIC,"M. fortuitum; M. fortuitum, read-out: MIC",32 µg/mL
same,MIC,[22],> 64 µg/mL
same,MIC,[23],8 µg/mL
same,MIC,[24],32 to 64 µg/mL
same,MIC,[25],32 µg/mL
same,MIC,[26],> 64 µg/mL
same,MIC,"M. avium; M. avium, read-out: MIC",32 µg/mL
same,MIC,Candida dlabrata 250^mdr; 48 h,1 µg/mL
same,MIC,[7],8 µg/mL
same,MIC,"Shigella sp., BK 12440",64 µg/mL
S=C=NCc1ccncc1 [Compound 29],stability of the compound,[27],instability of the compound
same,General antimicrobial activity,"[28]; semi-quantitative score from number of sensitive bacterial strains at 100 and 200 μM, deduced from number of sensitive bacterial species and average MIC",−
S=C=NCc1ccc2ccc3cccc4ccc1c2c34 [Compound 33],MIC,[1],4 µg/mL
same,activity against MRSA (in words),[29],very efficient
same,MIC,Candida albicans 90030,8 µg/mL
same,activity against Bacillus cereus (in words),Bacillus cereus,very efficient
same,MIC,[2],> 64 µg/mL
same,MIC,[3],32 µg/mL
same,MIC,Candida crusei 6258^mdr,> 64 µg/mL
same,MIC,[4],> 64 µg/mL
same,MIC,[5],> 64 µg/mL
same,activity against Staphylococcus epidermidis (in words),[30],very efficient
same,MIC,Candida albicans 90028,32 µg/mL
same,antimicrobial / growth-inhibitory activity (in words),[28]; Table 1 screen,poor growth-inhibitory activity
same,MIC,Candida dlabrata 250^mdr,64 µg/mL
same,MIC,[7],> 64 µg/mL
